The record followed here is ChEMBL document CHEMBL5046267, “Discovery of N-Trisubstituted Pyrimidine Derivatives as Type I RET and RET Gatekeeper Mutant Inhibitors with a Novel Kinase Binding Pose” (J Med Chem, 2022).

Molecules are shown by their SMILES. Calls of active or inactive are those of the source. The calls are words filed in the database; no cut-off is given here.

In assay [1] the test system is HEK293T. Nature of the assay: Inhibition of autophosphorylation of NCOA4-RET V804M mutant (unknown origin) transfected HEK293T cells assessed as inhibition of autophosphorylation of RET at 100 to 2500 nM measured after 2 hrs by Western blotting analysis. Conditions: Homo sapiens, dose 100-2500 nM. Format: cell-based.
The test system of assay [2] is HEK293T. Briefly: Inhibition of autophosphorylation of human NCOA4-RET G810R mutant transfected HEK293T cells assessed as inhibition of autophosphorylation of RET at 100 to 2500 nM measured after 2 hrs by Western blotting analysis. Format: cell-based. The settings on record: dose 100-2500 nM. On the technique in general: A western blot detects proteins with antibodies after separation by electrophoresis.

Consider `CCN1CCN(c2cc(Nc3cc(C)n[nH]3)nc(Nc3ccc(CC(=O)NCc4cccc(F)c4)cc3)n2)CC1`, for which the inhibition entry in the assay on HEK293T [1] was “Active”. In addition, the inhibition entry with HEK293T [2] is “inactive”.
`Cc1cc(Nc2cc(N3CCN(C)CC3)nc(Nc3ccc(CC(=O)Nc4cccc(F)c4)cc3)n2)[nH]n1`: in the assay on HEK293T [1], the inhibition entry is “Active”. The inhibition result with HEK293T [2] is “inactive”.
The corresponding values for `Cc1cc(Nc2cc(N3CCN(C)CC3)nc(Nc3ccc(CC(=O)Nc4ccc(F)cc4)cc3)n2)[nH]n1` are “Active” and “inactive”.
The corresponding values for `Cc1cc(Nc2cc(N3CCN(C)CC3)nc(Nc3ccc(CC(=O)Nc4ccc(C(C)C)cc4)cc3)n2)[nH]n1` are “Active” and “inactive”.
